In PMC5995184, “Potent anti-leukemic activity of a specific cyclin-dependent kinase 9 inhibitor in mouse models of chronic lymphocytic leukemia” (Oncotarget, 2018):

System: TCL1 CLL cells (CD5+CD19+), T and B lymphocytes
Assay: TCL1 transgenic CLL mice, oral LDC526, longitudinal blood and final spleen analysis
Assay type: in vivo, mouse
Source text: Another widely used preclinical CLL model are TCL1 transgenic mice. The TCL1 transgenics represent a constitutive CLL model not involving the adoptive transfer of cells. This model mirrors the natural course of human IgVH-unmutated CLL including its disease progression. In addition, this model has also been widely used by others to test novel therapeutic molecules. […] Consecutive blood sampling allowed us to carry out a longitudinal study in individual TCL1 and control mice. For this, we chose a cohort of TCL1 and littermate control mice, which were 9-12 months old (Figure 5A). We chose TCL1 transgenics with high peripheral CLL cell (CD19+CD5+) counts (14.6±7.4/nl, mean±SEM). Given the presumably high leukemic burden in these aged TCL1 mice and the reduced general condition of some NSG mice receiving 75 mg/kg for 5 days we decided to dose TCL1 mice with 50 mg/kg daily for two consecutive days (Figure 5A). As the experiment was longitudinally designed and there was no effect expected of administering carrier to wild-type control mice we omitted this control group and established three experimental groups (Figure 5A). In order to minimize stress by collecting blood specimens we sampled blood three times, 8 days apart (days -5, +3 and +11; Figure 5A). Compared to blood smears prepared before commencing LDC526 treatment a marked decrease of peripheral blood leukocytes and CLL cells was observed two days post the last LDC526 administration to TCL1 transgenic mice (Figure 5B). In contrast to the carrier control treated TCL1 mice, white blood cell counts (WBC) dropped in LDC526-treated wild-type and TCL1 mice (Figure 5C). In comparison to wild-type control mice, where WBC dropped to 34% of baseline values, the WBC decrease in TCL1 mice was more dramatic dropping to 8% of baseline values (Figure 5D).
All mice were bred and housed at the University Hospital Essen animal care facility. TCL1 mice were back-crossed more than 6 generations into the C57BL/6 background and were genotyped as previously described. Age-matched TCL1 wild-type littermates served as controls. Peripheral blood counts were determined with the VetABC analyzer (scil, Viernheim, Germany). Blood smears were Wright-Giemsa stained. For the human CLL xenograft experiments eight to 14-week-old NOD.Cg-Prkdc^scid Il2rg^tm1Wjl/SzJ (NOD/scid/γc^null; NSG) mice were sublethally irradiated (3.25 Gy) 24 hours before transplantation. Freshly isolated 1.0 x 10^8 PBMC suspended in 0.2 ml of RPMI were intravenously transplanted as previously described. For oral administration, LDC526 was diluted in polyethelene glycol (PEG Mn 400, Sigma-Aldrich) and administerd by gavage. Animal experiments were performed in accordance with institutional guidelines approved by the Animal Care Committee of the University Hospital Essen.
LDC526 [(3-((4-(4-fluoro-2-methoxyphenyl)-1,3,5-triazin-2-yl)amino)phenyl)methane-sulfonamide, molecular weight 389,41 g/mol, Figure 1A] was provided as powder (LDC526 synthesis, supplementary methods). For oral gavage administration LDC526 was diluted in polyethelene glycol (PEG Mn 400, Sigma-Aldrich, Munich, Germany) followed by sonication for 3 x 5 minutes with intermediate mixing.
Apoptosis and cell death were determined by using Annexin V (BD Biosciences, Heidelberg, Germany) and 4′,6-Diamidin-2-phenylindol (DAPI, Sigma-Aldrich) staining. Erythrocytes of murine peripheral blood samples were lysed with NH4Cl hypotonic solution. Single cell suspensions of murine spleens were prepared as previously described. Murine cells were stained with antibodies directed against murine CD3 (clone 145-2C11), CD5 (53-7.3) and CD19 (1D3), respectively. For the detection of human cells in NSG spleens antibodies against human CD3 (clone SK7), CD4 (SK3), CD5 (L17F12), CD8 (SK1), CD19 (J3-119 or SJ25C1) and CD45 (2D1) were used (purchased from BD Bioscience, Biolegend and Beckman Coulter). […]

## COc1cc(F)ccc1-c1ncnc(Nc2cccc(CS(N)(=O)=O)c2)n1 [LDC526, (3-((4-(4-fluoro-2-methoxyphenyl)-1,3,5-triazin-2-yl)amino)phenyl)methane-sulfonamide]
50 mg/kg for two days
  decrease of peripheral blood CLL counts of individual TCL1 mice: at least 8 fold
50 mg/kg for two days, day +3
  decrease of TCL1 blood T cells: 6 fold
  decrease of mean TCL1 blood CLL numbers compared to baseline: 16 fold
LDC526-treated mice, longitudinal
  hemoglobin counts: did not change significantly
TCL1 mice
  increase of peripheral blood CLL numbers on day +11 compared to day +3: 29%
TCL1 mice after LDC526 treatment
  mean platelet concentrations, percent of baseline levels: ≥ 50%
TCL1 mice, 50 mg/kg daily for two days, day +3
  WBC, percent of baseline values: 8%
TCL1 mice, 50 mg/kg for two days
  drop of mean WBC: 12 fold
TCL1 mice, peripheral blood
  non-malignant B cell numbers, percent of baseline values: 1.4%
Day +3
  peripheral blood TCL1 CLL cells, percent of baseline levels: 6.4%
Day +11
  splenic weights versus carrier control TCL1 mice: significantly lower
